Data from patent publication US20230292744A1, “FLYING PEST CONTROL COMPOSITION AND FLYING PEST CONTROL SPRAY” (Kao Corporation, priority 2019, published 2023).

System: not listed separately
Experiment: Reach amount of sprayed droplets
Assay type: physicochemical
Conditions: spray container A, horizontal distance 30 cm, per spraying (five trigger operations)
Method: A spray in which a 3 mmol/kg aqueous solution of the wetting agent shown in Table 1 was filled in a spray container A shown in Table 2 was prepared.
In the evaluation method described in the preceding section, one in which instead of the mesh net (3), a paper towel (“Kim Towel White”, manufactured by Nippon Paper Crecia Co., Ltd.) cut into a size of 6 cm×6 cm was stuck to the front face (11) of the frame (1) with a double-sided tape was prepared. Before the evaluation, the total weight of the frame (1) and the paper towel was measured, and then, the spray was fixed at a position where the horizontal distance d until the front face (11) of the frame (1) was 30 cm such that the tip of the spray nozzle (that is, the ejection port) (41) of the spray container (4) reached, and the trigger operation was performed five times toward the inside of the frame (1) to spray the aqueous solution. After spraying, the weights of the frame (1) and the paper towel were measured, and a reach amount of the sprayed droplets per spraying was calculated according to the following calculation equation.
(Reach amount of sprayed droplets (mg/cm^2 per time)={(Weights of frame and paper towel after spraying)−(Weights of frame and paper towel before spraying)}/(Area (36 cm^2) of paper towel)/(Spraying time (five times))
It can be judged that the wetting agent is one in which the larger the reach amount of sprayed droplets, the higher the straightness of the spray droplets when used for the flying pest exterminating composition, and the more excellent the action of capable of efficiently reaching the flying pests.

Molecule | Reach amount of sprayed droplets of 3 mmol/kg aqueous solution [mg/cm^2]
CCCCC(CC)COCC(O)CO (stereo not drawn) [e, 2-Ethylhexyl glyceryl ether] | 1.7
CCCCCCCCCCCCOS(=O)(=O)[O-].[Na+] [g, Sodium lauryl sulfate] | 5.7
Benzalkonium chloride | 3.1
C10-C14 alkyl glucoside [b] | 1.7
Polyoxyethylene(3) lauryl ether [i] | 0.2
Polyoxyethylene(5) lauryl ether | 0.5
Polyoxyethylene(9) lauryl ether [c] | 2.4
Polyoxyethylene(12) lauryl ether [d] | 2.6
Polyoxyethylene(19) lauryl ether [f] | 3.2
Polyoxyethylene(47) lauryl ether [j] | 6.1

System: Wings of Aedes albopictus (female)
Experiment: Contact angle against wings of mosquito
Assay type: physicochemical
Conditions: 0.5 μL of 3 mmol/kg aqueous solution, 25° C., one second after dropping, θ/2 method
Excerpt: Wings of Aedes albopictus (female) were collected, and 8 to 10 pieces of the collected wings were arranged without generating gaps on a double-sided tape (“NITTO TAPE”, manufactured by Nitto Denko Corporation).

Molecule | Contact angle against wing of mosquito [°]
CCCCC(CC)COCC(O)CO (stereo not drawn) [e, 2-Ethylhexyl glyceryl ether] | 79.1
CCCCCCCCCCCCOS(=O)(=O)[O-].[Na+] [g, Sodium lauryl sulfate] | 111.0
Benzalkonium chloride | 80.0
C10-C14 alkyl glucoside [b] | 55.0
Polyoxyethylene(3) lauryl ether [i] | 54.0
Polyoxyethylene(5) lauryl ether | 38.6
Polyoxyethylene(9) lauryl ether [c] | 64.8
Polyoxyethylene(12) lauryl ether [d] | 71.9
Polyoxyethylene(19) lauryl ether [f] | 113.8
Polyoxyethylene(47) lauryl ether [j] | 116.4

System: not listed separately
Experiment: Surface tension at 25° C. by the Wilhelmy method
Assay type: physicochemical
Conditions: 3 mmol/kg aqueous solution of the wetting agent, value 10 minutes after immersion
Excerpt: With respect to respective wetting agents described in Table 1, one obtained by dissolving each wetting agent in water to prepare an aqueous solution having a concentration of 3 mmol/kg was used as a measurement sample. With respect to a flying pest exterminating composition described of each of the Examples, the foregoing composition was used as it was as a measurement sample. These measurement samples were each poured into a glass-made Petri dish having a diameter of 6.4 cm and a depth of 3.8 cm, and after removing air bubbles on the water surface, the measurement was performed in the state that the resulting sample was allowed to stand still for 30 minutes or more. In the present measurement, using a surface tension balance “K100” (manufactured by KRÜSS GmbH), a platinum plate was kept immersed in the aforementioned aqueous solution in a depth of 1 mm, and a measured value 10 minutes after the immersion was taken as a value of the surface tension.

Molecule | 25° C. surface tension [mN/m]
CCCCC(CC)COCC(O)CO (stereo not drawn) [e, 2-Ethylhexyl glyceryl ether] | 38.30
CCCCCCCCCCCCOS(=O)(=O)[O-].[Na+] [g, Sodium lauryl sulfate] | 29.20
Benzalkonium chloride | 32.68
C10-C14 alkyl glucoside [b] | 29.61
Polyoxyethylene(3) lauryl ether [i] | 26.13
Polyoxyethylene(5) lauryl ether | 27.34
Polyoxyethylene(9) lauryl ether [c] | 31.82
Polyoxyethylene(12) lauryl ether [d] | 36.09
Polyoxyethylene(19) lauryl ether [f] | 42.13
Polyoxyethylene(47) lauryl ether [j] | 50.54
